From PubChem BioAssay AID1264 (University of Pittsburgh Molecular Library Screening Center, 2008)
Several values for one entry are separate records, joined by “and”; a condition that tells them apart may be missing. Equal entries are not always repeated. Activity calls are given as the source filed them.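 Rule for the calls: active = every replicate of triplicate confirmation testing shows 50% or greater inhibition; inconclusive = one or more replicate tests show below 50% inhibition; inactive = every triplicate test shows below 50% inhibition.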

Target: Serine/threonine-protein kinase PLK1 (Homo sapiens) (UniProt P53350)
Sequence (P53350 whole entry, looked up): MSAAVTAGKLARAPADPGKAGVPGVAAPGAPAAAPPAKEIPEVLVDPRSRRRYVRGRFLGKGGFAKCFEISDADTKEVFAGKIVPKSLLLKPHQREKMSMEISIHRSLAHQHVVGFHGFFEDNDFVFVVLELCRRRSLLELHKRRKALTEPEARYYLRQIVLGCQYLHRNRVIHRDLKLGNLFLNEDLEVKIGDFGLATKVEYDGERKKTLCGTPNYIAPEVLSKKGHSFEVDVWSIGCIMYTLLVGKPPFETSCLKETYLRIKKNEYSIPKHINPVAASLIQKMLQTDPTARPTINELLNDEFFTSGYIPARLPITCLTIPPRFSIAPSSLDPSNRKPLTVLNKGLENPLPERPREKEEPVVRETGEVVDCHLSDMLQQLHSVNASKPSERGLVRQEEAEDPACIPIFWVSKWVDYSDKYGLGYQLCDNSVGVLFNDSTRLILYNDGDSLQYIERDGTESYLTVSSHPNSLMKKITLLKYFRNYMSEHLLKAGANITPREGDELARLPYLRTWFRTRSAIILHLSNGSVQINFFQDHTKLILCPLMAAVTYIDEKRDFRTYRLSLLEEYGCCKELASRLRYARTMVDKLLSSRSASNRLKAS
Experiment: PLK1 kinase activity inhibitors, confirmation, biochemical, analogue series, repeat of primary screen (AID 1264)
Conditions: recombinant PLK1 kinase, TR-FRET phosphopeptide binding; at 10 µM; hits give high values

Row | SMILES | inhibition
1 | CCOC(=O)c1ccc(NC(=O)c2c(N)n(C)c(=O)n(C)c2=O)cc1 | -20.8% (inactive)
2 | CCOc1ccc(NC(=O)c2c(N)n(C)c(=O)[nH]c2=O)cc1 | -9.99% (inactive)
3 | Cc1cccc(N/N=C/c2c(O)[nH]c(=S)[nH]c2=O)c1 | -7.37% (inactive)
4 | Cc1cc(=O)n2[nH]cnc2n1 | 19.1% (inactive)
5 | CCOc1ccc(C2=CC(c3ccccc3)n3ncnc3N2)cc1 (stereo unspecified) | -6.38% (inactive)
6 | CCCCOC(=O)c1ccc(NC(=O)c2ccc(F)cc2F)cc1 | -1.8% (inactive)
7 | CCCCOC(=O)c1ccc(NC(=O)c2c(O)[nH]c(=O)[nH]c2=O)cc1 | 13.1% (inactive)
8 | CCCCOC(=O)c1ccc(NC(=O)c2c(N)n(C)c(=O)[nH]c2=O)cc1 | -5.01% (inactive)
9 | Cc1cc(C)c(C2=CC(c3ccccc3)n3ncnc3N2)cc1C (stereo unspecified) | -3.17% (inactive)
10 | C1=C(c2ccccc2)Nc2ncnn2C1 | 12.8% (inactive)
11 | CC(C)C(=O)NCCc1nc(-c2ccc(Cl)cc2)no1 | -14.7% (inactive)
12 | CCCC(=O)NC(C)c1nc(-c2ccc(C)cc2)no1 (stereo unspecified) | -6.32% (inactive)
13 | CC1=CC(c2ccccc2)n2nc(N)nc2N1 (stereo unspecified) | -13.7% (inactive)
14 | CCOC(=O)c1cccc(NC(=O)c2ccc(F)cc2F)c1 | -1.61% (inactive)
15 | O=C(NCCc1nc(-c2ccccc2Cl)no1)C1CCCCC1 | -35.6% (inactive)
16 | O=C(NCCc1nc(-c2ccccc2)no1)c1ccccc1 | -5.02% (inactive)
17 | CCOC(=O)c1ccccc1NC(=O)c1c(O)[nH]c(=O)[nH]c1=O | -7.12% (inactive)
18 | CCOc1ccc(NC(=O)c2ccc(F)cc2F)cc1 | -2.77% (inactive)
19 | Cc1ccc(NC(=O)c2ccc(F)cc2F)cc1 | 0.531% (inactive)
20 | CC(C)(C)c1ccc(C2=CC(c3ccccc3F)n3ncnc3N2)cc1 (stereo unspecified) | -3.46% (inactive)
21 | COc1ccc(C2C=C(c3ccccc3)Nc3ncnn32)cc1 (stereo unspecified) | -8.01% (inactive)

Row | SMILES | inhibition
22 | Cn1cccc1C1C=C(c2ccc(C(C)(C)C)cc2)Nc2ncnn21 (stereo unspecified) | -5.07% (inactive)
23 | CC(C)C(=O)NCCc1nc(-c2ccccc2)no1 | -10.1% (inactive)
24 | O=C(Nc1ccccc1)c1c(O)[nH]c(=O)[nH]c1=O | 0.179% (inactive)
25 | CC(C)(C)c1ccc(C2=CC(c3ccccc3)n3ncnc3N2)cc1 (stereo unspecified) | -7.88% (inactive)
26 | C1=C(c2ccccc2)Nc2ncnn2C1c1ccccc1 (stereo unspecified) | -5.72% (inactive) and -12.8% (inactive)
27 | CCOC(=O)c1ccccc1NC(=O)c1c(O)[nH]c(=S)[nH]c1=O | 19.1% (inactive)
28 | Cc1ccc(C2=CC(c3ccccc3)n3ncnc3N2)cc1 (stereo unspecified) | -16.9% (inactive)
29 | CCC(=O)NCCCc1nc(-c2ccccc2)no1 | -3.38% (inactive)
30 | CCOC(=O)c1cccc(NC(=O)c2c(NCc3ccccc3)[nH]c(=O)[nH]c2=O)c1 | -25.1% (inactive)
31 | O=C(NCCc1nc(-c2ccccc2)no1)c1ccco1 | -16.1% (inactive)
32 | CCC(=O)NCCc1nc(-c2ccccc2)no1 | -12.8% (inactive)
33 | CC(C)C(=O)NCCc1nc(-c2ccccc2Cl)no1 | -5.05% (inactive)
34 | CCOC(=O)c1ccc(NC(=O)c2c(N)n(C)c(=O)[nH]c2=O)cc1 | -19.2% (inactive)
35 | Cc1ccc(C2C=C(c3ccccc3)Nc3ncnn32)cc1 (stereo unspecified) | -8.59% (inactive)
36 | Cc1ccc(C2=CC(c3ccc(C)cc3)n3ncnc3N2)cc1 (stereo unspecified) | -1.39% (inactive)
37 | CCOC(=O)c1cccc(NC(=O)c2c(O)[nH]c(=O)[nH]c2=O)c1 | -17.6% (inactive)
38 | CC(=O)NCCc1nc(-c2ccc(Cl)cc2)no1 | 0.952% (inactive)
39 | CCOC(=O)c1ccc(NC(=O)c2c(O)[nH]c(=O)[nH]c2=O)cc1 | -4.9% (inactive)
40 | CC(C)(C)C(=O)NCCc1nc(-c2ccccc2)no1 | 0.116% (inactive)
41 | CCOC(=O)c1ccccc1NC(=O)c1ccc(F)cc1F | -4.35% (inactive)
42 | CCOc1ccc(NC(=O)c2c(O)[nH]c(=O)[nH]c2=O)cc1 | 4.03% (inactive)

Row | SMILES | inhibition
43 | O=C(NCCc1nc(-c2ccccc2Cl)no1)c1ccccc1 | -12.8% (inactive)
44 | CCOC(=O)c1cccc(NC(=O)c2c(N)n(C)c(=O)[nH]c2=O)c1 | -1.45% (inactive)
45 | Cn1c(N)c(C(=O)Nc2ccccc2)c(=O)[nH]c1=O | 8.78% (inactive)
46 | O=C(Nc1ccccc1)c1c(O)[nH]c(=S)[nH]c1=O | 14.3% (inactive)
47 | CCC1=CC(c2ccccc2)n2ncnc2N1 (stereo unspecified) | 27.4% (inactive)
48 | CCOC(=O)c1ccc(NS(=O)(=O)c2c(N)n(C)c(=O)n(C)c2=O)cc1 | -7.36% (inactive)
49 | Cc1ccc(C2=CC(c3ccccc3)n3ncnc3N2)c(C)c1 (stereo unspecified) | -6.91% (inactive)
50 | Cn1c(N)c(S(=O)(=O)NCc2ccccc2)c(=O)n(C)c1=O | -15.5% (inactive)
51 | CCOC(=O)CCCCCNC(=O)c1ccc(F)cc1F | -1.76% (inactive)
52 | C/C(=N\NC(=O)c1ccncc1)c1c(O)[nH]c(=O)[nH]c1=O | -1.95% (inactive)
53 | CCOC(=O)CCCCCNC(=O)c1c(O)[nH]c(=O)[nH]c1=O | -9.36% (inactive)
54 | COc1ccc(C2C=C(C)Nc3ncnn32)cc1 (stereo unspecified) | 5.53% (inactive)
55 | O=C(Nc1ccccc1)c1ccc(F)cc1F | 24.9% (inactive)
56 | CCOC(=O)c1ccc(NC(=O)c2c(N)n(Cc3ccccc3)c(=O)[nH]c2=O)cc1 | -23.9% (inactive)
57 | CCOC(=O)c1ccccc1NC(=O)c1c(N)n(C)c(=O)[nH]c1=O | -3.12% (inactive)
58 | FC(F)(F)c1ccccc1C1=CC(c2ccccc2)n2ncnc2N1 (stereo unspecified) | -2.08% (inactive)
59 | CCOC(=O)c1ccc(NC(=O)c2c(NCc3ccccc3)[nH]c(=O)[nH]c2=O)cc1 | -44% (inactive)
60 | CC1=CC(c2ccccc2)n2ncnc2N1 (stereo unspecified) | 26% (inactive)
61 | CCOC(=O)c1ccc(NC(=O)c2ccc(F)cc2F)cc1 | 4.42% (inactive)
